Active and inactive are the calls of the source. The rule behind the calls is not given here.
Key:
[1] = molecular target: T1, Neuronal acetylcholine receptor; alpha4/beta2 (Homo sapiens, UniProt P17787+P43681); assay: Inhibition of human (alpha4)3(beta2)2 nAChR expressed in Xenopus laevis oocytes assessed as inhibition of acetylcholine-induced current response at 10 uM pretreated for 30 secs followed by co-application with acetylcholine measured at holding potential of -60 mV by two-electrode voltage-clamp method; format: cell-based; conditions: Oocyte, time 30.0 sec
T1 sequence (P17787 whole entry): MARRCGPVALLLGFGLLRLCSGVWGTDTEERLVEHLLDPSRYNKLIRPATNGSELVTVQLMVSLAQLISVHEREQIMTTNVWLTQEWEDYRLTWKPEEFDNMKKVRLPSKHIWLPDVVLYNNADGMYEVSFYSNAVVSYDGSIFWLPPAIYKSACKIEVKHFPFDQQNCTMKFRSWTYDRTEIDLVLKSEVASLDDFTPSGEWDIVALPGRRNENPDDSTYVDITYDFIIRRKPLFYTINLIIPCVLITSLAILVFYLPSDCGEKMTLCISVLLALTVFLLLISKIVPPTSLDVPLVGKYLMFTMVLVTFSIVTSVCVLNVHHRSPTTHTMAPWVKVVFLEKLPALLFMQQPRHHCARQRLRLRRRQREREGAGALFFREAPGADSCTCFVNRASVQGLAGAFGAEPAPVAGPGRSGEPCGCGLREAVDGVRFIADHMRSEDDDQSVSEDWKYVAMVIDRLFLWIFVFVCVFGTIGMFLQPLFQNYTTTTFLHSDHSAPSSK
T1 sequence (P43681 whole entry): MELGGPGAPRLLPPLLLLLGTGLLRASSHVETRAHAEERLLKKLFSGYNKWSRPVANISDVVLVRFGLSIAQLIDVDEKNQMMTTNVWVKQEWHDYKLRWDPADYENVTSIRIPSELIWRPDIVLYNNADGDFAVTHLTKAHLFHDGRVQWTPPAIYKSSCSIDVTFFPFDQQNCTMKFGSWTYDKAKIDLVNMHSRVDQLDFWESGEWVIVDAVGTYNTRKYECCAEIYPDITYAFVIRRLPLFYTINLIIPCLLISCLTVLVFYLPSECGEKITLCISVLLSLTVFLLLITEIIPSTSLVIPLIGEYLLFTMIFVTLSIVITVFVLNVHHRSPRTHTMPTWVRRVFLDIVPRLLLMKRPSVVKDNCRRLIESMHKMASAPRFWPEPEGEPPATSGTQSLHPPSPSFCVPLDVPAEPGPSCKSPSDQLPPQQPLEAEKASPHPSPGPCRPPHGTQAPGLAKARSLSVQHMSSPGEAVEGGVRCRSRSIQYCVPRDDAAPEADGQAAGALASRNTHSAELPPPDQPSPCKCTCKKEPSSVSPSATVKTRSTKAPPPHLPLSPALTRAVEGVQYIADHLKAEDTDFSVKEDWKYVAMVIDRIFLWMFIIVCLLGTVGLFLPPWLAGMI

[2] = molecular target: T1, Neuronal acetylcholine receptor; alpha4/beta2; assay: Inhibition of human (alpha4)2(beta2)3 nAChR expressed in Xenopus laevis oocytes assessed as inhibition of acetylcholine-induced current response at 10 uM pretreated for 30 secs followed by co-application with acetylcholine measured at holding potential of -60 mV by two-electrode voltage-clamp method; format: cell-based; conditions: Oocyte, time 30.0 sec
[3] = molecular target: T1, Neuronal acetylcholine receptor; alpha4/beta2; assay: Inhibition of human (alpha4)3(beta2)2 nAChR expressed in Xenopus laevis oocytes assessed as inhibition of acetylcholine-induced current response in presence of 100 uM acetylcholine by two-electrode voltage-clamp method; format: cell-based, Oocyte; conditions: for logIC50: Oocyte
[4] = molecular target: T1, Neuronal acetylcholine receptor; alpha4/beta2; assay: Non-competitive antagonist activity at human (alpha4)3(beta2)2 nAChR expressed in Xenopus laevis oocytes decrease in acetylcholine-induced maximum current with non-significant change in Ach potency at IC50 pretreated for 30 secs followed by co-application with acetylcholine measured at holding potential of -60 mV by two-electrode voltage-clamp method; format: cell-based; conditions: Oocyte, time 30.0 sec
[5] = molecular target: T1, Neuronal acetylcholine receptor; alpha4/beta2; assay: Inhibition of human (alpha4)2(beta2)3 nAChR expressed in Xenopus laevis oocytes assessed as inhibition of acetylcholine-induced current response in presence of 3 uM acetylcholine by two-electrode voltage-clamp method; format: cell-based, Oocyte; conditions: for logIC50: Oocyte
[6] = molecular target: Neuronal acetylcholine receptor; alpha4/beta2 (Rattus norvegicus, UniProt P09483+P12390); assay: Inhibition of rat alpha4beta2 nAChR expressed in Xenopus laevis oocytes assessed as inhibition of acetylcholine-elicited current response measured at holding potential of -60 mV by two-electrode voltage-clamp method; format: cell-based, Oocyte
Sequence of Neuronal acetylcholine receptor; alpha4/beta2 (Rattus norvegicus, UniProt P09483+P12390) (P09483 whole entry): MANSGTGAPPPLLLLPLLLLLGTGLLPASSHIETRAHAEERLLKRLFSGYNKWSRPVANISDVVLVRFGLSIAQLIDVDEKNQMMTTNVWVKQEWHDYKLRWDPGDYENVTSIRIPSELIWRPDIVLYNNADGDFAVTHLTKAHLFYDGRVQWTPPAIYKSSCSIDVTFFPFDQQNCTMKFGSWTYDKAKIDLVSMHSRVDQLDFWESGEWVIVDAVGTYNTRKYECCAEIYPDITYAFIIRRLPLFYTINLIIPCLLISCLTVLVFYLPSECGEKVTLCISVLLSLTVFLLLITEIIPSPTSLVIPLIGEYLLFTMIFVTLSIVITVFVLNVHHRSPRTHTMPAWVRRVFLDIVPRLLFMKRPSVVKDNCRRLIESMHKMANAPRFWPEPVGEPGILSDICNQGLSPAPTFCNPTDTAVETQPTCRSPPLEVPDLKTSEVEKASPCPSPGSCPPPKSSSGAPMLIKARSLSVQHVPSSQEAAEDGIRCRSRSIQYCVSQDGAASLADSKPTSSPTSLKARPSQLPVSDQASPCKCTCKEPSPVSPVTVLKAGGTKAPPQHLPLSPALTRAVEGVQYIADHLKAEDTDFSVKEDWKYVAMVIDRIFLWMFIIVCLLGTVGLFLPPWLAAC
Sequence of Neuronal acetylcholine receptor; alpha4/beta2 (Rattus norvegicus, UniProt P09483+P12390) (P12390 whole entry): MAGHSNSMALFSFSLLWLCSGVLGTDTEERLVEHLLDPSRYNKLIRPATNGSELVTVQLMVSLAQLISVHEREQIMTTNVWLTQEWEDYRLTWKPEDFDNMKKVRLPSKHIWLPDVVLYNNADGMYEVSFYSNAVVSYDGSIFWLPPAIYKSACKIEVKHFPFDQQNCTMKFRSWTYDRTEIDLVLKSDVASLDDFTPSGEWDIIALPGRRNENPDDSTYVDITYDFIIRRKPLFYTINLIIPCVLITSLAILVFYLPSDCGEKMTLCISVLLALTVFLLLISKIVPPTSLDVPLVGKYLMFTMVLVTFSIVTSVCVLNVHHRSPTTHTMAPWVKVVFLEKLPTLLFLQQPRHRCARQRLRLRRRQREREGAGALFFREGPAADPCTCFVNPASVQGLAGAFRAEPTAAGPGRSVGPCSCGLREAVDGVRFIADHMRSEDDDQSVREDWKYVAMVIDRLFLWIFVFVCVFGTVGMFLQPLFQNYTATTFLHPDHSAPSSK

[7] = molecular target: Neuronal acetylcholine receptor subunit alpha-7 (Rattus norvegicus, UniProt Q05941); assay: Inhibition of rat alpha7 nAChR expressed in Xenopus laevis oocytes assessed as inhibition of acetylcholine-elicited current response measured at holding potential of -60 mV by two-electrode voltage-clamp method; format: cell-based, Oocyte
Sequence of Neuronal acetylcholine receptor subunit alpha-7 (Q05941 whole entry): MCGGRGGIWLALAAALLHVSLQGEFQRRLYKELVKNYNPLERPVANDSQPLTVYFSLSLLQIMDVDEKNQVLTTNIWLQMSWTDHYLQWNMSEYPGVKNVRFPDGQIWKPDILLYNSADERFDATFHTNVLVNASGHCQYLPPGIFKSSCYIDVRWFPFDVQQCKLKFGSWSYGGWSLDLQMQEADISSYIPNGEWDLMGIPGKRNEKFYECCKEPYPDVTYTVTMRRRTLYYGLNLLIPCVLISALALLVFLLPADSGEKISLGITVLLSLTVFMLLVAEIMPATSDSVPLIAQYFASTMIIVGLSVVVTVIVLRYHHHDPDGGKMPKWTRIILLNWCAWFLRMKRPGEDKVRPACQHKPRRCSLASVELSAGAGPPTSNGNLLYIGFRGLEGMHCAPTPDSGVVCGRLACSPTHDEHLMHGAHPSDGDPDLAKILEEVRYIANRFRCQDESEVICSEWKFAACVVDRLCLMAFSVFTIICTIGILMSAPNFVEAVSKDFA

| SMILES | inhibition [1] | inhibition [2] | also measured |
| --- | --- | --- | --- |
| C=C1[C@@H]2CCC[C@@]1(COC(=O)c1ccccc1-c1cccnc1)CN(CC)C2 | Active | – | – |
| C=C1[C@@H]2CCC[C@@]1(COC(=O)c1ccccc1-c1ccncc1)CN(CC)C2 | Active | – | – |
| C=C1[C@@H]2CCC[C@@]1(COC(=O)c1ccccc1-c1cccc(NC(C)=O)n1)CN(CC)C2 | 80% | Active | IC50 [3]: 4.9 µM; logIC50 [3]: 0.7; inhibition [4]: Active; IC50 [5]: 27.3 µM; logIC50 [5]: 1.4 |
| C=C1[C@@H]2CCC[C@@]1(COC(=O)c1ccccc1-c1ccccc1)CN(CC)C2 | Active | – | – |
| C=C1[C@@H]2CCC[C@@]1(COC(=O)c1ccccc1-c1cncc(NC(C)=O)c1)CN(CC)C2 | 60% | Active | – |
| C=C1[C@@H]2CCC[C@@]1(COC(=O)c1ccccc1N1C(=O)CC(C)C1=O)CN(CC)C2 (stereo partly specified) | – | – | IC50 [6]: 4.66 µM; IC50 [7]: 20.7 µM |
| C=C1[C@@H]2CCC[C@@]1(COC(=O)c1ccccc1-c1ccc(NC(C)=O)cn1)CN(CC)C2 | 60% | Active | IC50 [3]: 4.1 µM; logIC50 [3]: 0.6; inhibition [4]: Active; IC50 [5]: 29.1 µM; logIC50 [5]: 1.5 |
| C=C1[C@@H]2CCC[C@@]1(COC(=O)c1ccccc1-c1ccnc(NC(C)=O)c1)CN(CC)C2 | 60% | Active | – |
| C=C1[C@@H]2CCC[C@@]1(COC(=O)c1ccccc1-c1cc(NC(C)=O)ccn1)CN(CC)C2 | 80% | Active | IC50 [3]: 3.9 µM; logIC50 [3]: 0.6; inhibition [4]: Active; IC50 [5]: 15 µM; logIC50 [5]: 1.2 |
| C=C1[C@@H]2CCC[C@@]1(COC(=O)c1ccccc1-c1cccc(NC(C)=O)c1)CN(CC)C2 | Active | – | – |
| C=C1[C@@H]2CCC[C@@]1(COC(=O)c1ccccc1-c1ccc(NC(C)=O)cc1)CN(CC)C2 | Active | – | – |
| C=C1[C@@H]2CCC[C@@]1(COC(=O)c1ccccc1-c1ccccn1)CN(CC)C2 | 50% | Active | – |
| CCN1C[C@]2(COC(=O)c3ccccc3N3C(=O)C[C@H](C)C3=O)CC[C@H](OC)[C@]34C1[C@@](O)([C@@H](OC)[C@H]23)[C@@]1(O)C[C@H](OC)[C@H]2C[C@@H]4[C@@H]1[C@H]2OC | 95% | Active | logIC50 [3]: -1.1; inhibition [4]: Active; logIC50 [5]: -0.8 |
| C=C1[C@@H]2CCC[C@@]1(COC(=O)c1ccccc1-c1ccc(NC(C)=O)nc1)CN(CC)C2 | 60% | Active | – |

Source: ChEMBL document CHEMBL5055676, “Novel methyllycaconitine analogues selective for the α4β2 over α7 nicotinic acetylcholine receptors” (Bioorg Med Chem, 2021)
